Laboratory results as given in US11510928B2, “Use of mirtazapine in the treatment of inflammatory disorders, autoimmune disease and PBC” (UTI Limited Partnership, priority 2017, dated 2022).
“And” between values parts separate entries of the source, which are not always exact repeats. Identical values can stand only once.

Columns and labels:
[1] = test system: PBC patients; conditions: human, in vivo; listed as UDCA; cited from earlier work
[2] = test system: PBC patients; assay: THIN database cohort study of PBC patients: decompensation, liver transplant and mortality free survival by drug usage; assay type: in vivo, human
Excerpt: We conducted a cohort study using The Health Improvement Network (THIN). THIN is one of the largest medical databases in the UK^8, consisting of prospectively gathered electronic medical records from over 11.1 million patients^8. […] Data from participant general practitioners across the UK is exported to the THIN administrators and database, which is updated every 3 months^11. The THIN database records demographic data and clinical events using Read codes, prescription medications, and laboratory values^12.
We identified patients with PBC Read code “J6160” from April 1974 until May 2007. This cohort was followed until May 2012. We excluded patients having overlap syndrome with autoimmune hepatitis or primary sclerosing cholangitis. The first code of PBC identified in the THIN database was considered the index (ie. diagnosis) date. FIG. 10 provides a flow diagram illustrating the selection of the study population. The primary outcome was the first occurrence of one of the three events following the diagnosis of PBC: (1) decompensation of cirrhosis (ascites, spontaneous bacterial peritonitis, hepatic encephalopathy, hepatorenal syndrome, variceal bleeding, jaundice, or hepatocellular carcinoma); (2) liver transplantation; or (3) death.
Read codes were used to identify patients with chronic depression disorder. Chronic depression was defined as follows: (1) never diagnosed with chronic depression; (2) past depression diagnosis prior to 90 days from PBC diagnosis; and (3) current depression diagnosis if a diagnosis was made within 90 days before or after a PBC diagnosis. Using THIN database therapy files, we assessed the impact of anti-depressant medications on outcomes of PBC patients (mortality, decompensation, and liver transplant).
For each anti-depressant medication, use was defined as follows: (1) never used the medication; (2) past use as defined as a previous code for medication use prior to 90 days of PBC diagnosis; and (3) current medication user if the medication code was identified within 90 days before or after a PBC diagnosis. We assessed the effect of each anti-depressant medication on study outcomes separately. Antidepressants were classified as typical or atypical and stratified accordingly. Atypical antidepressants include: Agomelatine, Bupropion and Mirtazapine. While typical antidepressants include the following groups: (a) Selective Serotonin Reuptake Inhibitors (SSRI): Citalopram, Escitalopram, Fluoxetine, Fluvoxamine, Paroxetine and Sertraline; (b) […] (SNRI): Desvenlafaxine, Duloxetine, Minacipran and Venlafaxine; (c) Serotonin modulators: Nefazodone, Trazodone and Vilazodone; (d) Tricyclics and tetracyclics: Amitriptyline, Amoxapine, Clomipramine, Desipramine, Doxepin, Imipramine, Maprotiline, Nortriptyline and Protriptyline, Trimiprramine; (e) Monamine oxidase inhibitors: Isocarboxazid, Phenelzine, Selegiline and Tranylcypromine.
We assessed age at diagnosis of PBC, sex, and the presence of coexisting liver disease (ie. chronic hepatitis either viral, alcoholic, or fatty liver disease; yes/no). Smoking status was classified (current, former, never smoked, or unknown status) at the time of PBC diagnosis, alcohol consumption was classified (current, former, never consumed alcohol, or unknown status) at PBC diagnosis. Ursodeoxycholic acid (UDCA) usage (ever/never recorded) was also determined.
In our primary analysis, we assessed demographic, clinical, and medication variables in the PBC cohort according to depression status. Where appropriate, we used the Fisher Exact test or Chi-Square test for categorical data, and the Kruskal-Wallis or Student's t-test for continuous data. Univariate analysis using Log Rank test and multivariate Cox Proportional Regression models were used to assess the impact of depression or anti-depressant medications on PBC outcomes as defined by death, decompensated cirrhosis, or liver transplant. […]

[3] = URSO usage (ever/never recorded)

C[C@H](CCC(=O)O)[C@H]1CC[C@H]2[C@@H]3[C@@H](O)C[C@@H]4C[C@H](O)CC[C@]4(C)[C@H]3CC[C@]12C [URSO, ursodeoxycholic acid]
Patients with PBC who do not fully respond to treatment [1]: 30% to 40% and 30-40%
Multivariate model-1 HR [2, 3]: 1.00
Multivariate model-2 HR [2, 3]: 1.00
Univariate HR, 10-year decompensation, liver transplant and mortality free survival [2, 3]: 0.80

CNCCC(Oc1ccc(C(F)(F)F)cc1)c1ccccc1 (stereo not drawn) [Fluoxetine]
Univariate HR, 10-year decompensation, liver transplant and mortality free survival ([2]; current usage vs none): 0.58
Univariate HR, 10-year decompensation, liver transplant and mortality free survival ([2]; usage prior to PBC diagnosis vs none): 0.83
